The subject of data set [1] is Bioluminescent P. aeruginosa. It counts as cell-based, Pseudomonas aeruginosa. As to conditions: 12.5 µM, LB, 37 °C; for Activity in bioluminescence kinetics assay (in words): up to 2 h.
Method: The decrease in bioluminescence at 37 °C was measured for a range of concentrations from 0 – 100 μM (Supp. Figs. S6 and S7).
Bioluminescent P. aeruginosa [73] was grown at 37 °C in Luria-Bertani (LB) broth. […] In a 96-well plate, 50 µL of P. aeruginosa solution (1 × 10^6 CFU/mL) was added to 50 µL of antimicrobial solution, and the bioluminescence was measured using an IVIS imaging system (a Xenogen product from Caliper Life Sciences, Hopkinton, MA) at 10 min intervals for 2 h. The reported values are the average of three independent experiments with two replicates each.
The test system of data set [2] is E. coli ATCC 35218. Nature of the data set: Bacterial count by plating after treatment, before TEM sample preparation. It counts as cell-based. As to conditions: 1 hour in PBS pH 7.4, control 1 × 10^8 CFU/mL.
Method: E. coli ATCC 35218, grown overnight at 35 °C in Mueller-Hinton broth (MHB), were resuspended in 1X (150 mM) PBS, pH 7.4, and diluted to a concentration of 1 × 10^8 CFU/mL. Aqueous peptide/peptoid stock solutions were added to 1 mL aliquots of the suspension to the desired final concentration. After 1 hour, small volumes of each sample were serially diluted, plated, and incubated overnight at 35 °C, to be counted the following day. The remaining volume of each sample was centrifuged, and the pellet resuspended and enrobed in 5–10 µL of 2% low-melting agarose (gelling temperature 25° ± 5 °C) then drawn up into the tip of a Pasteur pipette. The solidified rods were extruded into fixative (2% glutaraldehyde, 2% paraformaldehyde, 50 mM PBS, pH 7.4). […] 50 nm thin sections of embedded samples were cut using a diamond knife, stained for 5 min in 5% aqueous uranyl acetate, then rinsed in H2O. Sections were examined in a JEOL 1230 TEM. Experimental conditions were each repeated in at least two independent trials. For each replicate of each sample, bacteria across the thin section were first surveyed to determine morphological characteristics representative of that sample, then images were captured of at least five bacteria displaying those morphologies with an emphasis on clean (i.e., orthogonal) transverse and/or longitudinal sections. Each image shown is thus representative of the ultrastructural characteristics observed in bacteria throughout a given sample and between replicates.
Data set [3] can be described thus: RP-HPLC elution (% ACN) as measure of hydrophobicity. It counts as physicochemical. The note with it: chromatographic hydrophobicity; gradient of 5–95% acetonitrile (ACN) over 45 minutes, C18 column, 0.2 mL/min; average of three replicates.
The subject of a further data set is EGFP-Luc plasmid. Nature of the data set: DNA retardation assay (gel electrophoresis). The note with it: EGFP-Luc plasmid in TBS, complexes 20 min at room temperature, 1–2% agarose gel. It counts as binding.
Another data set concerns P. aeruginosa. Nature of the data set: Bacterial plating of P. aeruginosa (CFU). It is filed as cell-based, Pseudomonas aeruginosa. The note with it: 12.5 µM, LB, 37 °C, average of three replicates.
The test system of data set [4] is E. coli bacterial ribosomes. Nature of the data set: Aggregation of bacterial ribosomes (optical density at 550 nm). It counts as biochemical. The note with it: 1 µM ribosome solution, antimicrobial up to 800 µM, 10 min, λ = 550 nm.
Method: In a microcentrifuge tube, 5 µl of 1 µM purified bacterial ribosome solution (~40X diluted (v/v) from their intracellular concentration in bacterial cytosol)[62] was incubated with 5 µl of antimicrobial solution in a concentration range of 0–800 µM for 10 min. The absorbance of the solution was measured by UV-Vis spectroscopy at λ = 550 nm by a spectrophotometer (ND-1000, Thermo Scientific, Wilmington, DE). The values are reported as the average of three independent experiments with three replicates each.
Another data set deals with Erythrocytes. Nature of the data set: Hemolysis assay. It is filed as cell-based. The note with it: human erythrocytes in PBS pH 7.4, 1 h at 37 °C, A350; three independent replicates (two for LL-37 and fowlicidin-1). As for the experimental part: The plate was then centrifuged at 1200 g for 15 min, 100 μL of the supernatant from each well transferred to a fresh microtiter plate, and A350 measured.

The test system of data set [5] is E. coli ATCC 35218. It is filed as cell-based. The note with it: CAMHB, 35 °C, 16 h, final 5 × 10^5 CFU/mL, reproducible between three independent replicates.
Method: MICs were determined according to CLSI M7-A6 protocols in a 96-well microtiter plate. In test wells, 50 μL bacterial inoculum (1 × 10^6 CFU/ml) in cation-adjusted Mueller-Hinton broth (CAMHB) was added to 50 μL peptoid solution in CAMHB (prepared by 1:2 serial dilutions). Positive controls contained 50 μL inoculum and 50 μL CAMHB without peptoid. […] MIC values reported were reproducible between three independent experimental replicates, each consisting of two parallel trials.
Data set [6] deals with E. coli ATCC 35218. Kind of data set: Bacterial count by plating after 1-hour treatment, before SEM sample preparation. It is filed as cell-based. As to conditions: 1 hour in PBS, control 5 × 10^5 CFU/mL. The procedure: E. coli was treated with 10 μM peptide or peptoid for 1 hour in phosphate-buffered saline (PBS). […] We used 10 μM peptide/peptoid for all samples since it is near the MICs of the majority of the oligomers.
Before fixation, aliquots of each samples were serially diluted and plated on agar to determine the concentration of live bacteria remaining after the 1-hour treatment. […] (1) SEM samples were treated in PBS (as discussed above), whereas MIC assays are performed in cation-adjusted Mueller-Hinton broth. AMPs and ampetoids are known to interact with ions in the media (for example, when switching from plain Mueller-Hinton broth to cation-adjusted Mueller-Hinton broth)[1], so differences in activity may be due to changes in media composition. (2) the treatments were for one hour only, whereas MICs are determined after 16 hours of growth. […] (3) Some of these compounds may cause inhibition of growth without causing bacterial cell death (i.e., they are bacteriostatic—which is what the MIC indicates—rather than bactericidal—which is determined by plating and counting colonies). […]
Overnight cultures of E. coli ATCC 35218 were centrifuged for 10 min and 2500 × g at room temperature, then resuspended in PBS. […] Bacterial concentrations of the diluted suspensions were calculated from their OD590 values using optical density curves derived from pre-determined concentrations. […]

Setting [7] is: average of three independent experiments with two replicates each.

Read-outs that look alike come from different tables or passages of the source. Marks after values point to notes of the source that are not given here. Non-standard residues stand in square brackets, D forms with d. Residues, ends and D or L forms follow the SMILES beside them. N(1S-Me-propyl)Gly = CC[C@H](C)NCC(=O)O; Nspe = C[C@H](NCC(=O)O)c1ccccc1; Nphe = O=C(O)CNCc1ccccc1; Nlys = NCCCCNCC(=O)O Where only a bound is given, the exact number is not on record here.

Method for EGFP-Luc plasmid: DNA retardation was analyzed by gel electrophoresis. Peptoid/peptide-DNA complexes were formed by adding 10 µL of peptide/peptoid solution of varying concentrations to 10 µL DNA solution (EGFP-Luc plasmid in Tris-buffered saline (TBS) buffer), and the resulting solution was mixed by gentle aspiration. Complexes were incubated for 20 min at room temperature. After complex formation, 20 µL of each sample were loaded onto a 1–2% agarose gel in Tris/borate/EDTA (TBE) buffer, which ran at 120 V for 15 min. DNA bands on the gel were visualized under UV light by ethidium bromide staining.

For `NCCCCNCC(=O)N(CC(=O)N(CC(=O)N(CCCCN)CC(=O)N(CC(=O)N(CC(=O)N(CCCCN)CC(=O)N(CC(=O)N(CC(=O)N(CCCCN)CC(=O)N(CC(=O)N(CC(N)=O)Cc1ccccc1)Cc1ccccc1)Cc1ccccc1)Cc1ccccc1)Cc1ccccc1)Cc1ccccc1)Cc1ccccc1)Cc1ccccc1` [1 achiral] (H-[Nlys][Nphe][Nphe][Nlys][Nphe][Nphe][Nlys][Nphe][Nphe][Nlys][Nphe][Nphe]-NH2), in data set [1] (10 min, average of three independent experiments with two replicates each), the “Decrease in bioluminescence within 10 min” value is recorded as ~ 99.9%. In addition, in the data set with E. coli ATCC 35218 [2], the “TEM: Bacterial count after 10 µM treatment (% of control)” value is listed as 100 % of control and the “TEM: Bacterial count after 100 µM treatment (% of control)” value is listed as 0.03 % of control. For the same compound, the “% ACN at RP-HPLC elution” value in data set [3] is listed as 60.4%. In addition, in the data set with EGFP-Luc plasmid, the “Retardation assay: mass of compound required to completely retard migration of 1 µg of DNA” value (“Retardation assay: mass” below) is 1.5 µg.

With `C[C@@H](c1ccccc1)N(CC(N)=O)C(=O)CN(CCCCN)C(=O)CN(CCCCN)C(=O)CN(C(=O)CN(C(=O)CN(CCCCN)C(=O)CN(C(=O)CN(CCCCN)C(=O)CN(CCCCN)C(=O)CN(C(=O)CN(C(=O)CNCCCCN)[C@@H](C)c1ccccc1)[C@@H](C)c1ccccc1)[C@@H](C)c1ccccc1)[C@@H](C)c1ccccc1)[C@@H](C)c1ccccc1` [1-NLys5,11] (H-[Nlys][Nspe][Nspe][Nlys][Nlys][Nspe][Nlys][Nspe][Nspe][Nlys][Nlys][Nspe]-NH2; N-terminus and C-terminus assumed), in the data set on E. coli ATCC 35218 [2], the “TEM: Bacterial count after 10 µM treatment (% of control)” value was 100 % of control and the “TEM: Bacterial count after 100 µM treatment (% of control)” value was 30 % of control. In addition, the “% ACN at RP-HPLC elution” value in [3] is 51.2%. Moreover, the “Retardation assay: mass” value in the data set on EGFP-Luc plasmid is listed as 1.0 µg.

With `C[C@@H](c1ccccc1)N(CC(N)=O)C(=O)CN(C(=O)CN(CCCCN)C(=O)[C@@H]1CCCN1C(=O)CN(C(=O)CN(CCCCN)C(=O)CN(C(=O)CN(C(=O)CN(CCCCN)C(=O)CN(C(=O)CN(C(=O)CNCCCCN)[C@@H](C)c1ccccc1)[C@@H](C)c1ccccc1)[C@@H](C)c1ccccc1)[C@@H](C)c1ccccc1)[C@@H](C)c1ccccc1)[C@@H](C)c1ccccc1` [1-Pro9] (H-[Nlys][Nspe][Nspe][Nlys][Nspe][Nspe][Nlys][Nspe]P[Nlys][Nspe][Nspe]-NH2), in data set [1] (setting [7]), the “Decrease in bioluminescence at 2 h” value is ~ 20%. Further, the “% ACN at RP-HPLC elution” value in data set [3] is recorded as 62.6%.

Consider `O=C(O)c1cn(C2CC2)c2cc(N3CCNCC3)c(F)cc2c1=O` [Ciprofloxacin], for which the “Killing of bacteria within 10 minutes (CFU plating, in words)” value (“Killing of bacteria within 10 minutes” for short) in the data set on P. aeruginosa is “did not kill bacteria”. Besides, the “Aggregation of ribosomes (in words)” value in [4] is “no aggregation”. Also, the “Decrease in bioluminescence at 1 h” value in data set [1] (1 h, average of three independent experiments with two replicates each) is recorded as ~ 97%.

Consider `CC[C@H](C)[C@H](NC(=O)[C@H](CCCCN)NC(=O)[C@H](CCC(=O)O)NC(=O)[C@H](CCCCN)NC(=O)[C@H](CO)NC(=O)[C@H](CCCCN)NC(=O)[C@H](CCCNC(=N)N)NC(=O)[C@H](Cc1ccccc1)NC(=O)[C@H](Cc1ccccc1)NC(=O)[C@H](CC(=O)O)NC(=O)CNC(=O)[C@H](CC(C)C)NC(=O)[C@@H](N)CC(C)C)C(=O)NCC(=O)N[C@@H](CCCCN)C(=O)N[C@@H](CCC(=O)O)C(=O)N[C@@H](Cc1ccccc1)C(=O)N[C@@H](CCCCN)C(=O)N[C@@H](CCCNC(=N)N)C(=O)N[C@H](C(=O)N[C@H](C(=O)N[C@@H](CCC(N)=O)C(=O)N[C@@H](CCCNC(=N)N)C(=O)N[C@H](C(=O)N[C@@H](CCCCN)C(=O)N[C@@H](CC(=O)O)C(=O)N[C@@H](Cc1ccccc1)C(=O)N[C@@H](CC(C)C)C(=O)N[C@@H](CCCNC(=N)N)C(=O)N[C@@H](CC(N)=O)C(=O)N[C@@H](CC(C)C)C(=O)N[C@H](C(=O)N1CCC[C@H]1C(=O)N[C@@H](CCCNC(=N)N)C(=O)N[C@H](C(=O)N[C@@H](CCC(=O)O)C(=O)N[C@@H](CO)C(=O)O)[C@@H](C)O)C(C)C)[C@@H](C)CC)C(C)C)[C@@H](C)CC` [LL-37, reference compound], for which, in the data set on Erythrocytes, the “HD10 (hemolytic dose; concentration for 10% hemolysis)” value is on record as >100/>100^§ µM and the “HD50 (hemolytic dose; concentration for 50% hemolysis)” value was >100/>100^§ µM. Also, the “E. coli ATCC 35218 MIC” value with E. coli ATCC 35218 [5] was determined as 12.5 µM.

For the compound `CC[C@H](C)N(CC(N)=O)C(=O)CN(C(=O)CN(CCCCN)C(=O)CN(C(=O)CN(C(=O)CN(CCCCN)C(=O)CN(C(=O)CN(C(=O)CN(CCCCN)C(=O)CN(C(=O)CN(C(=O)CNCCCCN)[C@@H](C)CC)[C@@H](C)CC)[C@@H](C)CC)[C@@H](C)CC)[C@@H](C)CC)[C@@H](C)CC)[C@@H](C)CC` [compound 2] (H-[Nlys][N(1S-Me-propyl)Gly][N(1S-Me-propyl)Gly][Nlys][N(1S-Me-propyl)Gly][N(1S-Me-propyl)Gly][Nlys][N(1S-Me-propyl)Gly][N(1S-Me-propyl)Gly][Nlys][N(1S-Me-propyl)Gly][N(1S-Me-propyl)Gly]-NH2), in data set [4], the “Aggregation of ribosomes (in words)” value is “did not cause aggregation”. Moreover, the “Activity in bioluminescence kinetics assay (in words)” value in data set [1] is reported as “completely ineffective”. Further, in the data set on E. coli ATCC 35218 [2], the “TEM: Bacterial count after 10 µM treatment (% of control)” value is listed as 100 % of control and the “TEM: Bacterial count after 100 µM treatment (% of control)” value is given as 100 % of control. Besides, in the data set on E. coli ATCC 35218 [6], the “SEM: Bacterial count after 10 µM treatment (% of control)” value is reported as 100 % of control. For the same compound, the “% ACN at RP-HPLC elution” value in data set [3] is 52.4%. The “Retardation assay: mass” value in the data set with EGFP-Luc plasmid is >145^§ µg. For the same compound, in the data set on E. coli ATCC 35218 [5] (listed as peptoid 2), the “E. coli ATCC 35218 MIC” value is on record as > 100 µM.

As to `CC[C@H](C)[C@H](NC(=O)CN)C(=O)NCC(=O)N[C@@H](C)C(=O)N[C@H](C(=O)N[C@@H](CC(C)C)C(=O)N[C@@H](CCCCN)C(=O)N[C@H](C(=O)N[C@@H](CC(C)C)C(=O)N[C@H](C(=O)N[C@H](C(=O)NCC(=O)N[C@@H](CC(C)C)C(=O)N1CCC[C@H]1C(=O)N[C@@H](C)C(=O)N[C@@H](CC(C)C)C(=O)N[C@H](C(=O)N[C@@H](CO)C(=O)N[C@@H](Cc1c[nH]c2ccccc12)C(=O)N[C@H](C(=O)N[C@@H](CCCCN)C(=O)N[C@@H](CCCNC(=N)N)C(=O)N[C@@H](CCCCN)C(=O)N[C@@H](CCCNC(=N)N)C(=O)N[C@@H](CCC(N)=O)C(=O)N[C@@H](CCC(N)=O)C(N)=O)[C@@H](C)CC)[C@@H](C)CC)[C@@H](C)O)[C@@H](C)O)C(C)C)C(C)C` [melittin, reference compound], in the data set with E. coli ATCC 35218 [5], the “E. coli ATCC 35218 MIC” value came to 12.5 µM.

On to `CN(C)[C@@H]1C(O)=C(C(N)=O)C(=O)[C@@]2(O)C(O)=C3C(=O)c4c(O)cccc4[C@@](C)(O)[C@H]3C[C@@H]12` [tetracycline], for which the “Killing of bacteria within 10 minutes” value in the data set on P. aeruginosa is recorded as “did not kill bacteria”. The “Aggregation of ribosomes (in words)” value in data set [4] was “no aggregation”. Further, the “Decrease in bioluminescence at 2 h” value in data set [1] (setting [7]) is recorded as ~ 97%.

With oligomycin A, the “Killing of bacteria within 10 minutes” value in the data set on P. aeruginosa was “did not kill bacteria”. Also, in data set [4], the “Aggregation of ribosomes (in words)” value was “no aggregation”. For the same compound, in data set [1], the “Activity in bioluminescence kinetics assay (in words)” value is “inactive”.
